Measured values: patent publication US20240409662A1, “ANTIBODY MASKS AND USES THEREOF” (Vibrant Pharma Limited, priority 2021, published 2024)
Substitutions are numbered along the chain they refer to. Numbers in names are those of the source. Where two headings read alike, the source gives them in different places. No end group written: not given here.

B1: SP34-CEA (bispecific antibody)
heavy: EVKLLESGGGLVQPKGSLKLSCAASGFTFNTYAMNWVRQAPGKGLEWVARIRSKYNNYATYYADSVKDRFTISRDDSQSILYLQMNNLKTEDTAMYYCVRHGNFGNSYVSWFAYWGQGTLVTVSS
light: QAVVTQESALTTSPGETVTLTCRSSTGAVTTSNYANWVQEKPDHLFTGLIGGTNKRAPGVPARFSGSLIGDKAALTITGAQTEDEAIYFCALWYSNLWVFGGGTKVEIK
chain: EVQLVESGGGFVQAGESLTLSCTSSTLTFTPYRMAWYRQAPGKQRDLVADISSGDGRTTNYADFAKGRFTISRDNIKNTVFLRMTNLKPEDTAVYYCNTFVSFVGIARSWGQGTQVTVSSESKYGPPCPPCPAPEAAGGPSVFLFPPKPKDTLMISRTPEVTCVVVDVSQEDPEVQFNWYVDGVEVHNAKTKPREEQFNSTYRVVSVLTVLHQDWLNGKEYKCKVSNKGLPSSIEKTISKAKGQPREPQVCTLPPSQEEMTKNQVSLSCAVKGFYPSDIAVEWESNGQPENNYKTTPPVLDSDGSFFLVSRLTVDKSRWQEGNVFSCSVMHEALHNRFTQKSLSLSL
B2: MMP9-digested L7-D2G (bispecific antibody, not shown: small tags and cut ends)
heavy: B1 heavy
light: B1 light
chain: B1 chain
B3: MMP9-digested L4-D2E (bispecific antibody, not shown: small tags and cut ends)
heavy: B1 heavy
light: B1 light
chain: B1 chain
B4: MMP9-digested L6-D2E (bispecific antibody, not shown: small tags and cut ends)
heavy: B1 heavy
light: B1 light
chain: B1 chain
B5: MMP9-digested L5-D2E (bispecific antibody, not shown: small tags and cut ends)
heavy: B1 heavy
light: B1 light
chain: B1 chain
B6: L5-D2E (bispecific antibody)
heavy: QEGNEESSGGSPLGLSSGGSEVKLLESGGGLVQPKGSLKLSCAASGFTFNTYAMNWVRQAPGKGLEWVARIRSKYNNYATYYADSVKDRFTISRDDSQSILYLQMNNLKTEDTAMYYCVRHGNFGNSYVSWFAYWGQGTLVTVSS
light: B1 light
chain: B1 chain
B7: L7-D2G (bispecific antibody)
heavy: QGGNEESSGGSGSPLGLSSGGSGSEVKLLESGGGLVQPKGSLKLSCAASGFTFNTYAMNWVRQAPGKGLEWVARIRSKYNNYATYYADSVKDRFTISRDDSQSILYLQMNNLKTEDTAMYYCVRHGNFGNSYVSWFAYWGQGTLVTVSS
light: B1 light
chain: B1 chain
B8: L4-D2E (bispecific antibody)
heavy: QEGNEEGSGSPLGLGSGSEVKLLESGGGLVQPKGSLKLSCAASGFTFNTYAMNWVRQAPGKGLEWVARIRSKYNNYATYYADSVKDRFTISRDDSQSILYLQMNNLKTEDTAMYYCVRHGNFGNSYVSWFAYWGQGTLVTVSS
light: B1 light
chain: B1 chain
B9: L4-G3A (bispecific antibody)
heavy: B8 heavy with E2D, G3A
light: B1 light
chain: B1 chain
B10: L6-D2E (bispecific antibody)
heavy: QEGNEESSGGGSPLGLSSGGGSEVKLLESGGGLVQPKGSLKLSCAASGFTFNTYAMNWVRQAPGKGLEWVARIRSKYNNYATYYADSVKDRFTISRDDSQSILYLQMNNLKTEDTAMYYCVRHGNFGNSYVSWFAYWGQGTLVTVSS
light: B1 light
chain: B1 chain

Key:
SP34 = assay: Masking capability of potential masks of SP34 (ELISA, BLI); type: binding; conditions: mask and linker fused to SP34 VH and/or VL
Experimental: Binding of the 19 M-TCEs to both their antigens CEACAM5 and CD3δε was assessed with BLI using ForteBio Red96 as described above.

HT29 cells = assay: PBMC co-cultivation assay, M-TCE-induced killing of HT29 cells; type: cell-based, human; conditions: for EC50: HT29 + human PBMC, 72 hours, read-out: Efficacy (EC50); for tumor cell killing efficacy: digested vs undigested, in words; for Digested vs. masked: ratio of EC50 non-digested to MMP9-digested
Experimental: Five digested and undigested M-TCEs were tested for their tumor cell killing capability in the presence of human PBMC.
A total of 5×10^3 cells in RPMI1640 medium (supplemented with 10% FBS and 2 mM glutamine) of the target cell line (HT29) were seeded in 96-well plates (Day 0). A dilution series of respective antibodies was performed in assay media and added to target cells. On Day 0, a total of 5×10^4 PBMCs were added to each well, and the final reaction volume was adjusted to 200 μl. Percentage viability of target cell was measured by […]. LDH was measured after 72 hours using the Cell Counting Kit-8 (CK04, Dojindo, Japan) according to the manufacturer's recommendations. The results were analyzed as mean and standard deviation (SD) from triplicate wells and plotted as 4-parameter non-linear regression fittings using GraphPad Prism 9 software (GraphPad Software, San Diego, CA, USA).

CD3 on human PBMC = CD3 on human PBMC (human, UniProt P07766 23-207); assay: cell-based or functional assay
CD3 on human PBMC, sequence (P07766 23-207): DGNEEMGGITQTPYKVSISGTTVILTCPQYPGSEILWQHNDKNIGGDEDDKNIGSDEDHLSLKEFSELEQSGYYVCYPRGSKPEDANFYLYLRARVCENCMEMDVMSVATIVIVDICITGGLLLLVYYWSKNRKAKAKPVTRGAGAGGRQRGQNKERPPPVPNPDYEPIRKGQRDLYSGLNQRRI

| Molecule | Masking Capability (SP34) | other results |
| --- | --- | --- |
| L0-WT: M-TCE; QDGNEEPLGL-SP34VH, SEQ ID NO 12 | Yes | – |
| L2-D2E: M-TCE; QEGNEEGSPLGLGS-SP34VH, SEQ ID NO 26 | Yes | – |
| L2-D2G: M-TCE; QGGNEEGSPLGLGS-SP34VH, SEQ ID NO 32 | Yes | – |
| L2-D2I: M-TCE; QIGNEEGSPLGLGS-SP34VH, SEQ ID NO 31 | No | – |
| L2-D2R: M-TCE; QRGNEEGSPLGLGS-SP34VH, SEQ ID NO 25 | No | – |
| L2-G3A: M-TCE; QDANEEGSPLGLGS-SP34VH, SEQ ID NO 38 | Yes | – |
| L2-G3I: M-TCE; QDINEEGSPLGLGS-SP34VH, SEQ ID NO 37 | No | – |
| L2-Q1E: M-TCE; EDGNEEGSPLGLGS-SP34VH, SEQ ID NO 19 | No | – |
| L2-Q1H: M-TCE; HDGNEEGSPLGLGS-SP34VH, SEQ ID NO 22 | No | – |
| L2-Q1S: M-TCE; SDGNEEGSPLGLGS-SP34VH, SEQ ID NO 20 | No | – |
| L2-Q1V: M-TCE; VDGNEEGSPLGLGS-SP34VH, SEQ ID NO 23 | No | – |
| L2-Q1Y: M-TCE; YDGNEEGSPLGLGS-SP34VH, SEQ ID NO 21 | No | – |
| L2-WT: M-TCE; QDGNEEGSPLGLGS-SP34VH, SEQ ID NO 13 | Yes | – |
| L3-WT: M-TCE; QDGNEESGSPLGLSGG-SP34VH, SEQ ID NO 14 | Yes | – |
| L4-D2G: M-TCE; QGGNEEGSGSPLGLGSGS-SP34VH, SEQ ID NO 33 | Yes | – |
| L4-G3R: M-TCE; QDRNEEGSGSPLGLGSGS-SP34VH, SEQ ID NO 44 | Yes | – |
| L4-WT: M-TCE; QDGNEEGSGSPLGLGSGS-SP34VH, SEQ ID NO 15 | Yes | – |
| L5-D2E: M-TCE; QEGNEESSGGSPLGLSSGGS-SP34VH, SEQ ID NO 28 | Yes | EC50 (HT29 cells; MMP9-digested): 0.013 nM; EC50 (HT29 cells; Non-digested): 0.418 nM; tumor cell killing efficacy (HT29 cells): higher efficacy in inducing tumor cell killing than their undigested counterparts; Digested vs. masked (HT29 cells): 32× |
| L5-D2G: M-TCE; QGGNEESSGGSPLGLSSGGS-SP34VH, SEQ ID NO 34 | Yes | – |
| L5-G3A: M-TCE; QDANEESSGGSPLGLSSGGS-SP34VH, SEQ ID NO 40 | Yes | – |
| L5-WT: M-TCE; QDGNEESSGGSPLGLSSGGS-SP34VH, SEQ ID NO 16 | Yes | – |

| Molecule | Masking Capability (SP34) | other results |
| --- | --- | --- |
| L6-D2E: M-TCE; QEGNEESSGGGSPLGLSSGGGS-SP34VH, SEQ ID NO 29 | Yes | EC50 (HT29 cells; MMP9-digested): 0.01 nM; EC50 (HT29 cells; Non-digested): 0.317 nM; tumor cell killing efficacy (HT29 cells): higher efficacy in inducing tumor cell killing than their undigested counterparts; Digested vs. masked (HT29 cells): 32× |
| L6-D2G: M-TCE; QGGNEESSGGGSPLGLSSGGGS-SP34VH, SEQ ID NO 35 | Yes | – |
| L6-G3A: M-TCE; QDANEESSGGGSPLGLSSGGGS-SP34VH, SEQ ID NO 41 | Yes | – |
| L6-G3R: M-TCE; QDRNEESSGGGSPLGLSSGGGS-SP34VH, SEQ ID NO 45 | Yes | – |
| L6-WT: M-TCE; QDGNEESSGGGSPLGLSSGGGS-SP34VH, SEQ ID NO 17 | Yes | – |
| L7-D2E: M-TCE; QEGNEESSGGSGSPLGLSSGGSGS-SP34VH, SEQ ID NO 30 | Yes | – |
| L7-D2G: M-TCE; QGGNEESSGGSGSPLGLSSGGSGS-SP34VH, SEQ ID NO 36 | Yes | EC50 (HT29 cells; MMP9-digested): 0.011 nM; EC50 (HT29 cells; Non-digested): 0.096 nM; tumor cell killing efficacy (HT29 cells): higher efficacy in inducing tumor cell killing than their undigested counterparts; Digested vs. masked (HT29 cells): 9× |
| L7-G3A: M-TCE; QDANEESSGGSGSPLGLSSGGSGS-SP34VH, SEQ ID NO 42 | Yes | – |
| L7-WT: M-TCE; QDGNEESSGGSGSPLGLSSGGSGS-SP34VH, SEQ ID NO 18 | Yes | – |
| LC-L4-G2E: M-TCE, mask on VL; QEGNEEGSGSPLGLGSGS-SP34VL, SEQ ID NO 27 | Yes | – |
| B1 | – | EC50 of M-TCE-induced killing of HT29 cells in the presence of human PBMC (CD3 on human PBMC): 1 pM |
| B2 | – | EC50 of M-TCE-induced killing of HT29 cells in the presence of human PBMC (CD3 on human PBMC): 11 pM |
| B3 | – | EC50 of M-TCE-induced killing of HT29 cells in the presence of human PBMC (CD3 on human PBMC): 11 pM |
| B4 | – | EC50 of M-TCE-induced killing of HT29 cells in the presence of human PBMC (CD3 on human PBMC): 10 pM |
| B5 | – | EC50 of M-TCE-induced killing of HT29 cells in the presence of human PBMC (CD3 on human PBMC): 13 pM |
| B6 | – | Digested vs. masked (ratio of killing EC50) (CD3 on human PBMC): 32 fold; EC50 of M-TCE-induced killing of HT29 cells in the presence of human PBMC (CD3 on human PBMC): 418 pM |
| B7 | – | Digested vs. masked (ratio of killing EC50) (CD3 on human PBMC): 9 fold; EC50 of M-TCE-induced killing of HT29 cells in the presence of human PBMC (CD3 on human PBMC): 96 pM |
| B8 | – | Digested vs. masked (ratio of killing EC50) (CD3 on human PBMC): 59 fold; EC50 of M-TCE-induced killing of HT29 cells in the presence of human PBMC (CD3 on human PBMC): 650 pM |
| B9 | – | Digested vs. masked (ratio of killing EC50) (CD3 on human PBMC): 144 fold; EC50 of M-TCE-induced killing of HT29 cells in the presence of human PBMC (CD3 on human PBMC): 1720 pM |
| B10 | – | Digested vs. masked (ratio of killing EC50) (CD3 on human PBMC): 32 fold; EC50 of M-TCE-induced killing of HT29 cells in the presence of human PBMC (CD3 on human PBMC): 317 pM |
